Assays:
[1] = target: Cyclin-dependent kinase 2 (Homo sapiens, UniProt P24941); assay: Selectivity interaction (KinomeScan (DiscoverX)) EUB0000092b CDK2; conditions: at 10 µM
[2] = target: T1, Ephrin type-B receptor 2 (Homo sapiens) (UniProt P29323); assay: Selectivity interaction (KinomeScan (DiscoverX)) EUB0000092b EPHB2; conditions: at 10 µM
T1 sequence (whole entry): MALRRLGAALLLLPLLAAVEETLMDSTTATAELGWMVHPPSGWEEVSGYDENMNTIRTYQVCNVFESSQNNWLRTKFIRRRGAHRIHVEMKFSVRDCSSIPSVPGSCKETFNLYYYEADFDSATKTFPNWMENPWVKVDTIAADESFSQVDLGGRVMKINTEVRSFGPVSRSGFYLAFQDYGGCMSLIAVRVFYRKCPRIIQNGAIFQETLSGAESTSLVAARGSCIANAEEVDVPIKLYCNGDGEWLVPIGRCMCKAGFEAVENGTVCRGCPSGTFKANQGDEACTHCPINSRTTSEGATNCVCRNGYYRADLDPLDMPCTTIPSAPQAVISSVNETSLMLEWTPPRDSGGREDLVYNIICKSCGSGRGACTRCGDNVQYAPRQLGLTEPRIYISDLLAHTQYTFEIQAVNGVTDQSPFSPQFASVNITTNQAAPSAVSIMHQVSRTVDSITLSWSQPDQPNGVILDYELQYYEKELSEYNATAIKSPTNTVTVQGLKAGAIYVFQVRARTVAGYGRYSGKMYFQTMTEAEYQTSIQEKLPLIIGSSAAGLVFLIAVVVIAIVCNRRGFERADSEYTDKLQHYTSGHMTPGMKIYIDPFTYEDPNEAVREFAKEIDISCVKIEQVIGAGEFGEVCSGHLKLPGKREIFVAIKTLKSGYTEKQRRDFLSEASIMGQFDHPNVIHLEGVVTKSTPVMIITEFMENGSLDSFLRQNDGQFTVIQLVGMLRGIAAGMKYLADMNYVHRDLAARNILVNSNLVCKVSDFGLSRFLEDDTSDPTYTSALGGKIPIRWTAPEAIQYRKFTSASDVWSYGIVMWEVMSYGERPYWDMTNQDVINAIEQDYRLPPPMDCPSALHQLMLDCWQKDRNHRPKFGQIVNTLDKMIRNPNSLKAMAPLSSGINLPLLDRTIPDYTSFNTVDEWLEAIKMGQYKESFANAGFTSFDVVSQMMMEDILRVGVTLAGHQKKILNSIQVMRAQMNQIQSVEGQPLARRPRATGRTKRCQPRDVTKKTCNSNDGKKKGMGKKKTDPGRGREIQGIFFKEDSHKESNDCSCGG

[3] = target: T2, Tyrosine-protein kinase JAK3 (Homo sapiens) (UniProt P52333); assay: Selectivity interaction (ActivX KiNativ screen (ex vivo kinase selectivity in human PBMCs)) EUB0001619a JAK3; format: cell-based; conditions: PBMC, at 1 µM
T2 sequence (whole entry): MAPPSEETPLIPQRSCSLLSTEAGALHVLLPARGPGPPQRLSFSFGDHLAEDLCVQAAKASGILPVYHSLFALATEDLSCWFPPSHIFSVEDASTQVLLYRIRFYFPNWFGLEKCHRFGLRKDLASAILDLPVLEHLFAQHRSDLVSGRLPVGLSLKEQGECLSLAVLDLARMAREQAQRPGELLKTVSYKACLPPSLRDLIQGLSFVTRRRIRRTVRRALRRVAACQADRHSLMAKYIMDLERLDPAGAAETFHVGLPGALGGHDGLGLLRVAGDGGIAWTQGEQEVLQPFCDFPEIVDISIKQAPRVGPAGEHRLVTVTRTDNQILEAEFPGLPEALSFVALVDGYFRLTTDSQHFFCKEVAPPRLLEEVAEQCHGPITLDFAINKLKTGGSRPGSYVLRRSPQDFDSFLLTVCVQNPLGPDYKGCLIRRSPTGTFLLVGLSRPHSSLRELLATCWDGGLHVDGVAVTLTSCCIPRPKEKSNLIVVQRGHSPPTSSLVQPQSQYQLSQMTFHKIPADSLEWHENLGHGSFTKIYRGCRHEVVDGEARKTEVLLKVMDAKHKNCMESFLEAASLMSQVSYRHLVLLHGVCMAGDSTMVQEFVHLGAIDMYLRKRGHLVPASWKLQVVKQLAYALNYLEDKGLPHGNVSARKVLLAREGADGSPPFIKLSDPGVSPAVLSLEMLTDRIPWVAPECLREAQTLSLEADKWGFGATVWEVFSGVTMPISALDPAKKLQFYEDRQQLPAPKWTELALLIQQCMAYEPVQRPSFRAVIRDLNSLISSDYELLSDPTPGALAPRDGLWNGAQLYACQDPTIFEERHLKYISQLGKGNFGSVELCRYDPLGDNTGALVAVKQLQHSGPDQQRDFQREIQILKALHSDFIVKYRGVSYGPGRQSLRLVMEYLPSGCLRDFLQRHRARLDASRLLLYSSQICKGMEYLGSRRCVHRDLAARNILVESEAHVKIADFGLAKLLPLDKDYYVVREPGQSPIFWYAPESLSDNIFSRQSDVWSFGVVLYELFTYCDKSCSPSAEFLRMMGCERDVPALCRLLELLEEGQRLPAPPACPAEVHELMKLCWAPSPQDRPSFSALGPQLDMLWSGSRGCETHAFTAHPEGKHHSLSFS

With `CCC(=O)N1CCN(c2ccc(-n3c(=O)ccc4cnc5ccc(-c6cnc7ccccc7c6)cc5c43)cc2C(F)(F)F)CC1` the % of control [1] was 6.2% and the % of control [2] was 100%.

`N#Cc1cccc(-c2c[nH]c3ncnc(N4CCOCC4)c23)c1` gave a % of inhibition [3] of 7%.

— ChEMBL document CHEMBL5465560, “Selectivity Literature for EUbOPEN Chemogenomic Library” (2024)
